For one data set, the target named is serum albumin (BSA) (Bos taurus, UniProt P02769). The experiment in a line: Fluorescence test for interaction with albumin. The data set is classed as binding, bovine. Conditions: for Result F/F0 <0.5: compound/BSA weight ratio 1, excitation 280 nm, emission 350 nm; for Result F/F0 <0.5 / Result F/F0 <0.85: BSA 0.5 mg/ml, PBS pH 7.4. As to the method: The test carried out is a “fluorescence” test with albumin, which makes it posible, by measuring the variations in fluorescence of albumin, to verify whether an interaction exists between the compound tested and albumin.
The compound/albumin solutions are prepared from stock solutions of compounds and of serum albumin (BSA) by mixing the appropriate volumes in order to obtain a fixed BSA concentration at 0.5 mg/ml and compound/BSA weight ratios of 1, 5 and 10. These solutions are prepared in a PBS buffer at pH 7.4.
200 μl of the various compound/BSA solutions are introduced into a 96-well plate. The fluorescence measurements are carried out at room temperature (20° C.) with an EnVision® fluorescence spectrometer (PerkinElmer). The excitation wavelength is 280 nm and the emission wavelength is 350 nm. This corresponds to the fluorescence of the tryptophan residues of albumin (Ruiz-Peña M. et al., M, A. Physico-chemical studies of molecular interactions between non-ionic surfactants and bovine serum albumin, Colloids Surf. B Biointerfaces 2010, 75, 282-289). The F (compound/BSA)/F0 (BSA alone) ratio makes it possible to evaluate the interaction between the compound and albumin. If this ratio is less than 1, this means that the compound induces partial quenching of the albumin fluorescence linked to a change in environment of the tryptophan residues. This change reflects an interaction between the compound and albumin. It was verified, as a control, that, for all the compounds tested, the fluorescence of the compound alone is negligible considering the fluorescence of albumin (fluorescence (compound) <2% fluorescence (albumin)).

A further data set concerns the target T1, lysozyme (Gallus gallus, UniProt P00698).
T1 construct: purchased Sigma-Aldrich L6876
The experiment in a line: Turbidity measurement assays of compound/lysozyme solutions. It is filed as physicochemical. Conditions: for Turbidity of the solutions at the molar ratio 0.1: compound/lysozyme molar ratio 0.1; for Turbidity of the solutions at the molar ratio 0.1 / Turbidity of the solutions at the molar ratio 0.5: histidine buffer pH 6.2, NaCl, HACH 2100AN turbidity meter; for Turbidity of the solutions at the molar ratio 0.5: compound/lysozyme molar ratio 0.5; for turbidity of the compound/lysozyme solution compared with the counterexample/lysozyme solutions: whatever the ratio. As to the method: The turbidity of solutions in which a “model” protein, lysozyme and either a compound according to the invention or a counterexample compound are brought together is analyzed in the compound/lysozyme molar ratios of 0, 0.1 and 0.5.
The following solutions are prepared beforehand: histidine buffer solution, pH 6.2±0.1, at 194 mM (30 mg/ml), sodium chloride (NaCl) solution at 5017 mM (293 mg/ml), solution of lysozyme (Sigma-Aldrich, Ref L6876, CAS#12650-88-3) at […] ([…]), and solutions of each of the test products (pH 6.2±0.1), i.e. compounds according to the invention and counterexamples.
For each of the solutions of compounds to be prepared, 3 ml of an aqueous solution of compound are adjusted to pH 6.2±0.1 using 50±25 μl of a 0.1N hydrochloric acid (HCl) solution.
The test solutions at the compound/lysozyme molar ratios: 0, 0.1 and 0.5 are then prepared as follows.
The sodium chloride (NaCl) solution at 5017 mM, the histidine buffer solution at 194 mM and then the solution of compound are successively added to water, which results in a mixture which is homogenized on a roller mixer (Stuart Roller Mixer SRT9D) for 1 minute.
The lysozyme solution is, finally, added and then the final mixture is homogenized on the roller mixer for 1 minute.
The turbidity (expressed in NTU) for each of the final test solutions is measured using a HACH 2100AN turbidity meter.
The turbidity of the compound 1/lysozyme solution is analyzed in comparison with that of the counterexample A1/lysozyme and counterexample A2/lysozyme solutions. The turbidity of the compound 13/lysozyme solution is analyzed in comparison with that of the counterexample B1/lysozyme and counterexample B2/lysozyme solutions.

Where only a bound is given, the exact number is not on record here.

T1 sequence (P00698 19-147): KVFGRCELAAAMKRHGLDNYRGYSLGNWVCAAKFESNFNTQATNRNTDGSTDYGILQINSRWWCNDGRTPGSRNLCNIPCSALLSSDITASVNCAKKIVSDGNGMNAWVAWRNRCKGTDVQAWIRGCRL
Sequence of serum albumin (BSA) (P02769 25-607): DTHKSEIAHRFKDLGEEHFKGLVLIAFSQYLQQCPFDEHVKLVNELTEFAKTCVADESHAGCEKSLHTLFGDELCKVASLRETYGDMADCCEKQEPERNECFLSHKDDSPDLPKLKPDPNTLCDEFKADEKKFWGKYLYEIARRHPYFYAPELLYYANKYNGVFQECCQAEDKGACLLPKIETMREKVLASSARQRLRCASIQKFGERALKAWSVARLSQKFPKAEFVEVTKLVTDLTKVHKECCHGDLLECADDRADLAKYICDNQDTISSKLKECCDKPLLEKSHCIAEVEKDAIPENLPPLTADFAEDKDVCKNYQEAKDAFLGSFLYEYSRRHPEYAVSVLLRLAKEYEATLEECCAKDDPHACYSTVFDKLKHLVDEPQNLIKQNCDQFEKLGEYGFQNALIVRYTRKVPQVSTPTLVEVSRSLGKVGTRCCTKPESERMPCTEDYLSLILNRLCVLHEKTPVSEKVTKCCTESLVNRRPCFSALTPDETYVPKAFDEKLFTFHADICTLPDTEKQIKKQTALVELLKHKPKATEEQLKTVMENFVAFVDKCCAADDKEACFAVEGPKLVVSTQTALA

Take “Sodium maltotriosemethylcarboxylate Functionalized with 2-[(2-dodecanoylamino-6-dodecanoylamino)hexanoylamino]ethanamine [Compound 20]”: at serum albumin (BSA), the “Result F/F0 <0.5” value was “YES”.
Still for that read-out and setting: in the case of “Sodium maltotriosemethylcarboxylate Functionalized with 2-[(2octanoylamino-6-octanoylamino)hexanoylamino]ethanamine [Compound 27]” it was “YES”; in that of “Sodium maltotriosemethylcarboxylate Functionalized with 2-aminoethyl dodecanoate [Compound 29]”, “YES”; in that of “Sodium maltotriosemethylcarboxylate Functionalized with 3,7-dimethyloctanoyl phenylalaninate [Compound 30]”, “YES”.
For the substance “Sodium maltotriosemethylcarboxylate Functionalized with L-phenylalanine [Compound 1]”, at lysozyme, the “Turbidity of the solutions at the molar ratio 0.1” value is 55 NTU, the “Turbidity of the solutions at the molar ratio 0.5” value stood at 4.8 NTU and the “turbidity of the compound/lysozyme solution compared with the counterexample/lysozyme solutions” value is listed as “lower”.
For “Sodium maltotriosemethylcarboxylate Functionalized with L-phenylalanine [Compound 2]”, the “Result F/F0 <0.85” value at serum albumin (BSA) (compound/BSA weight ratio 5) and on serum albumin (BSA) (compound/BSA weight ratio 10) was “YES” each time. Besides, the “fluorescence ratio F/F0” value at serum albumin (BSA) (compound/BSA weight ratio of 5) and on serum albumin (BSA) (compound/BSA weight ratio of 10) was less than 0.85 in each case.
Consider “Sodium maltotriosemethylcarboxylate Functionalized with N-(2-aminoethyl)dodecanamide [Compound 21]”, for which the “Result F/F0 <0.5” value at serum albumin (BSA) is listed as “YES”.
“Sodium maltotriosemethylcarboxylate Functionalized with cholesteryl leucinate [Compound 13]”: on lysozyme, the “Turbidity of the solutions at the molar ratio 0.1” value worked out at 32 NTU, the “Turbidity of the solutions at the molar ratio 0.5” value was determined as 395 NTU and the “turbidity of the compound/lysozyme solution compared with the counterexample/lysozyme solutions” value is “lower”.
As to “Sodium maltotriosemethylcarboxylate Functionalized with decanoyl glycinate [Compound 23]”, the “Result F/F0 <0.5” value at serum albumin (BSA) is listed as “YES”.
The same measure, in the same setting: in the case of “Sodium maltotriosesuccinate Functionalized with dilauryl aspartate [Compound 22]” it was “YES”.

Source of the values: patent US20170143835A1, “SUBSTITUTED ANIONIC COMPOUNDS CONSISTING OF A BACKBONE MADE UP OF A DISCRETE NUMBER OF SACCHARIDE UNITS” (ADOCIA, priority 2012, published 2017).
